From patent publication US20250066363A1, “Bicyclic DGK Inhibitors” (Incyte Corporation, priority 2023, published 2025) come the findings set out here.

By IC50 is commonly meant the concentration needed to halve the response being measured.

One assay addresses DGKα (Homo sapiens (Human), UniProt P23743). The assay can be described thus: In vitro DGKα inhibition assay (ADP-Glo). Conditions: first column of Table A. Type of assay: biochemical. The method, then:
(§1) The DGKα and DGKζ biochemical reactions were performed using His-tagged human recombinant enzymes (Signal Chem, DGKα, #D21-10BH; DGKζ, #D30-1OH)) and DLG (Dilauroyl-sn-glycerol) lipid substrate (Signal Chem, #D430-59). ADP-Glo assay was performed using ADP-Glo™ kinase Assay kit (Promega, #V9104). The reactions were carried out in assay buffer containing 40 mM Tris, pH 7.5, 0.1% CHAPS, 0.1% Prionex, 40 mM NaCl, 5 mM MgCl2, 1 mM CaCl2, and 1 mM DTT. DGKα reactions contained 0.1 nM DGKα, 50 μM ATP, and 20 μM DLG. And DGKζ reactions contained 0.4 nM DGKζ, 30 μM ATP, and 20 μM DLG.
(§2) For compound inhibition studies, 40 nL test compound in DMSO was added to wells of white polystyrene plates in 384-well (Greiner, #784075) or 1536-well format (Greiner, #782075). Compounds were added with top concentration of 2 mM with 11 point, 3-fold dilution series. Enzyme solution (contains 2× DGK enzyme concentration in 1× assay buffer) was added to the plate in 2 μL/well volume, followed by 2 μL/well of substrate solution (contains 2× concentration of ATP and DLG substrate in 1× assay buffer). Plates were then centrifuged for 1 min at 1200 RPM and sealed or lidded. For 4 μL reaction volume, test compounds were therefore diluted 100× to final top concentration of 20 μM. After 90 minute incubation, reactions were quenched by addition of 2 μL/well Promega ADP-Glo Reagent, followed by centrifugation and lidding. After 60 min incubation, 2 μL/well Promega Kinase Detection Reagent was added, plates centrifuged, and incubated for 30 min. Plates were then read using Luminescence method on BMG PHERAstar FSX plate reader. Percent inhibition was calculated and IC50s were determined using 4-parameter fit in Genedata Screener. Labcyte Echo acoustic dispenser was used for compound addition, and Formulatrix Tempest liquid handler was used for all reagent dispenses.

The next assay deals with DGKζ (Homo sapiens (Human), UniProt Q13574). The assay is described as follows: In vitro DGKζ inhibition assay (ADP-Glo). It is filed as biochemical. The settings on record: second column of Table A, head printed DGKα, presumably DGKζ; His-tagged human recombinant DGKζ 0.4 nM, 30 μM ATP, 20 μM DLG. The method, then: as §1, §2
(In general: ADP-Glo first removes unused ATP, then detects ADP through luciferase.)

The mark [1] stands for this setting: His-tagged human recombinant DGKα 0.1 nM, 50 μM ATP, 20 μM DLG.

DGKζ, sequence (Q13574 whole entry): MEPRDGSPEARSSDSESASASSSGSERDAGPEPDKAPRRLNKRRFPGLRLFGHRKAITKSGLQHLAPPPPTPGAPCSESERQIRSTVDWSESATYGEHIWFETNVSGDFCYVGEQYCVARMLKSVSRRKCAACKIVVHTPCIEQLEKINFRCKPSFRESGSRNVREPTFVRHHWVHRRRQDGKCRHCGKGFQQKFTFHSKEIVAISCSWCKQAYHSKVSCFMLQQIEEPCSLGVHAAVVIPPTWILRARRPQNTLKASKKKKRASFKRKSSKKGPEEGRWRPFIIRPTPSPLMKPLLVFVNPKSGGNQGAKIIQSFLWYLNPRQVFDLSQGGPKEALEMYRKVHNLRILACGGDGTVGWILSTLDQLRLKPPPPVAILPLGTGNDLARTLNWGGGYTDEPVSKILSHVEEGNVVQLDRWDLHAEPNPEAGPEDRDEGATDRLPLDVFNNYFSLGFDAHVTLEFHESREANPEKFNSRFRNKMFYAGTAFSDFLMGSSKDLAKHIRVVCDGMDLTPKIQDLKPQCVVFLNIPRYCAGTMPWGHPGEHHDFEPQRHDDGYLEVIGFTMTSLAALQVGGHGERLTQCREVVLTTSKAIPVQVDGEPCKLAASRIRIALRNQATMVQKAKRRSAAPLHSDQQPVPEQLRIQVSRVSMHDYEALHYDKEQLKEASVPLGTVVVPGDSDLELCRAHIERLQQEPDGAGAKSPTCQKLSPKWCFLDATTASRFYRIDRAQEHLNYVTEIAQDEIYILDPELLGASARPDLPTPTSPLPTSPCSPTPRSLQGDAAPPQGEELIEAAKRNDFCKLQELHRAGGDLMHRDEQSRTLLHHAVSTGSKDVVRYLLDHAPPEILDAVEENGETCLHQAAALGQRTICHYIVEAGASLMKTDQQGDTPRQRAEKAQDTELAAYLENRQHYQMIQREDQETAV
DGKα, sequence (P23743 whole entry): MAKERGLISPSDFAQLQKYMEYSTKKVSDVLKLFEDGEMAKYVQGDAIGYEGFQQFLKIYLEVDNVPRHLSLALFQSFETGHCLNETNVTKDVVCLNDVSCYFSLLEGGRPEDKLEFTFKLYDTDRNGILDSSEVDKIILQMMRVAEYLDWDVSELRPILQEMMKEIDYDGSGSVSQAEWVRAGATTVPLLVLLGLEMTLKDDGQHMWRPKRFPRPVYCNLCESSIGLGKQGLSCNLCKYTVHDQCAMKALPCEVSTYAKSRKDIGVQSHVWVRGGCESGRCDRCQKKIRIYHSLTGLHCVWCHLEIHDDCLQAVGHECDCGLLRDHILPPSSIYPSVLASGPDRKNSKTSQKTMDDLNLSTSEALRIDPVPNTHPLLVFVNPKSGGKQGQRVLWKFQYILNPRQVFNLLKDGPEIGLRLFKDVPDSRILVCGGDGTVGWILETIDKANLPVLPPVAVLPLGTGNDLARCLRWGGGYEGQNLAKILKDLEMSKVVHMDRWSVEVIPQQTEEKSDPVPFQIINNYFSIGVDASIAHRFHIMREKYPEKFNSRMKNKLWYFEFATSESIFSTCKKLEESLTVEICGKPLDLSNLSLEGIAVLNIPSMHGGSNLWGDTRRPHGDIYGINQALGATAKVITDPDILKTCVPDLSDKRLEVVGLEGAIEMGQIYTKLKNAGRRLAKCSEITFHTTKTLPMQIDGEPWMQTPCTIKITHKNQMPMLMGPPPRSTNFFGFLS

For `Cc1nc2c(N3C[C@@H](C)N(C(c4ccc(F)cc4)c4ccc(F)cc4)C[C@@H]3C)cc(=O)n(C)c2n1C[C@@H]1CCCO1` [Example 11, 7-((2S,5R)-4-(Bis(4-fluorophenyl)methyl)-2,5-dimethylpiperazin-1-yl)-2,4-dimethyl-3-(((S)-tetrahydrofuran-2-yl)methyl)-3,4-dihydro-5H-imidazo[4,5-b]pyridin-5-one], the IC50 on DGKα (setting [1]) and at DGKζ was at most 10 nM in each case.
For the compound `CC[C@@H]1CN(c2nc(=O)n(C)c3c2nc(C)n3C[C@H]2OCC[C@@H]2O)[C@@H](C)CN1[C@@H](CC)c1ccc(C(F)(F)F)cc1` [Example 69, 6-((2S,5R)-5-Ethyl-2-methyl-4-((S)-1-(4-(trifluoromethyl)phenyl)propyl)piperazin-1-yl)-9-(((2R,3S)-3-hydroxytetrahydrofuran-2-yl)methyl)-3,8-dimethyl-3,9-dihydro-2H-purin-2-one], the IC50 at DGKα (setting [1]) and on DGKζ was at most 10 nM throughout.
As to `CC[C@@H]1CN(c2nc(=O)[nH]c3c2nc(C)n3C[C@@H]2CCCO2)[C@@H](C)CN1C(c1ccc(F)cc1)c1ccc(F)cc1` [Example 4, 6-((2S,5R)-4-(Bis(4-fluorophenyl)methyl)-5-ethyl-2-methylpiperazin-1-yl)-8-methyl-9-(((S)-tetrahydrofuran-2-yl)methyl)-3,9-dihydro-2H-purin-2-one], the IC50 on DGKα (setting [1]) and at DGKζ was at most 10 nM throughout.
Turning to `C[C@@H]1CN(c2nc(=O)[nH]c3c2ncn3C[C@@H]2CCCO2)[C@@H](C)CN1C(c1ccc(F)cc1)c1ccc(F)cc1` [Example 9, 6-((2S,5R)-4-(Bis(4-fluorophenyl)methyl)-2,5-dimethylpiperazin-1-yl)-9-(((S)-tetrahydrofuran-2-yl)methyl)-3,9-dihydro-2H-purin-2-one], the IC50 at DGKα (setting [1]) and on DGKζ was at most 100 nM each time.
Turning to `Cc1nc2c(N3C[C@@H](CO)N(C(c4ccc(F)cc4)c4ccc(F)cc4)C[C@@H]3C)nc(=O)n(C)c2n1C[C@@H]1CCCO1` [Example 3, 6-((2S,5S)-4-(Bis(4-fluorophenyl)methyl)-5-(hydroxymethyl)-2-methylpiperazin-1-yl)-3,8-dimethyl-9-(((S)-tetrahydrofuran-2-yl)methyl)-3,9-dihydro-2H-purin-2-one], the IC50 on DGKα (setting [1]) and on DGKζ was at most 10 nM throughout.
In the case of `Cc1nc2c(N3C[C@@H](C)N([C@H](c4ccc(C(F)(F)F)cc4F)C(C)C)C[C@@H]3C)nc(=O)n(C)c2n1C[C@@H]1CCCO1` [Example 51, 6-((2S,5R)-4-((S)-1-(2-Fluoro-4-(trifluoromethyl)phenyl)-2-methylpropyl)-2,5-dimethylpiperazin-1-yl)-3,8-dimethyl-9-(((S)-tetrahydrofuran-2-yl)methyl)-3,9-dihydro-2H-purin-2-one], the IC50 at DGKα (setting [1]) and at DGKζ was at most 10 nM each time.
`CC[C@@H]1CN(c2nc(=O)n(C)c3c2nc(C)n3C[C@@H]2CCCO2)[C@@H](C)CN1C(c1ccc(Cl)cc1)C1CC(F)(F)C1` (stereo partly drawn) [Example 37, 6-((2S,5R)-4-((4-Chlorophenyl)(3,3-difluorocyclobutyl)methyl)-5-ethyl-2-methylpiperazin-1-yl)-3,8-dimethyl-9-(((S)-tetrahydrofuran-2-yl)methyl)-3,9-dihydro-2H-purin-2-one]: the IC50 at DGKα (setting [1]) and on DGKζ was at most 10 nM throughout.
As to `C[C@@H]1CN(c2nc(=O)n(C)c3c2nnn3C[C@H]2CCCO2)[C@@H](C)CN1C(c1ccc(C(F)(F)F)cn1)c1ccc(C(F)(F)F)cn1` [Example 33, 7-((2S,5R)-4-(Bis(5-(trifluoromethyl)pyridin-2-yl)methyl)-2,5-dimethylpiperazin-1-yl)-4-methyl-3-(((R)-tetrahydrofuran-2-yl)methyl)-3,4-dihydro-5H-[1,2,3]triazolo[4,5-d]pyrimidin-5-one], the concentration for half-maximal inhibition (IC50) on DGKα (setting [1]) and at DGKζ was at most 10 nM each time.
For `Cc1nc2c(N3C[C@@H](C)N([C@H](c4ccc(C(F)F)c(F)c4)C(C)C)C[C@@H]3C)nc(=O)n(C)c2n1C[C@@H]1CCCO1` [Example 55, 6-((2S,5R)-4-((S)-1-(4-(Difluoromethyl)-3-fluorophenyl)-2-methylpropyl)-2,5-dimethylpiperazin-1-yl)-3,8-dimethyl-9-(((S)-tetrahydrofuran-2-yl)methyl)-3,9-dihydro-2H-purin-2-one], the IC50 at DGKα (setting [1]) and on DGKζ was at most 10 nM in each case.
In the case of `Cc1nc2c(N3C[C@@H](C)N(C(c4ccc(F)cc4)c4ccc(F)cc4)C[C@@H]3C)nc(=O)[nH]c2n1C[C@@H]1CCCO1` [Example 1, 6-((2S,5R)-4-(Bis(4-fluorophenyl)methyl)-2,5-dimethylpiperazin-1-yl)-8-methyl-9-(((S)-tetrahydrofuran-2-yl)methyl)-3,9-dihydro-2H-purin-2-one], the IC50 at DGKα (setting [1]) is at most 10 nM; on DGKζ it was at most 100 nM.
On the same counts, the results for `Cc1nc2c(N3C[C@@H](C)N(C(c4ccc(F)cc4)c4ccc(F)cc4)C[C@@H]3C)nc(=O)n(C)c2n1C[C@@H]1CCCO1` [Example 2, 6-((2S,5R)-4-(Bis(4-fluorophenyl)methyl)-2,5-dimethylpiperazin-1-yl)-3,8-dimethyl-9-(((S)-tetrahydrofuran-2-yl)methyl)-3,9-dihydro-2H-purin-2-one] are at most 10 nM and at most 10 nM.
Regarding `CC[C@@H]1CN(c2nc(=O)n(C)c3c2nc(C)n3C[C@@H]2CCCO2)[C@@H](C)CN1[C@@H](c1ccc(C(F)(F)F)cc1)C(C)C` [Example 60, 6-((2S,5R)-5-ethyl-2-methyl-4-((R)-2-methyl-1-(4-(trifluoromethyl)phenyl)propyl)piperazin-1-yl)-3,8-dimethyl-9-(((S)-tetrahydrofuran-2-yl)methyl)-3,9-dihydro-2H-purin-2-one], the 50% inhibitory concentration (IC50) at DGKα (setting [1]) and on DGKζ was at most 10 nM each time.
`CC[C@@H]1CN(c2nc(=O)[nH]c3c2nc(C)n3C[C@@H]2CCCO2)[C@@H](C)CN1C(c1ccc(Cl)cc1)C1CC(F)(F)C1` (stereo partly drawn) [Example 36, 6-((2S,5R)-4-((4-Chlorophenyl)(3,3-difluorocyclobutyl)methyl)-5-ethyl-2-methylpiperazin-1-yl)-8-methyl-9-(((S)-tetrahydrofuran-2-yl)methyl)-3,9-dihydro-2H-purin-2-one]: the 50% inhibitory concentration (IC50) at DGKα (setting [1]) was at most 10 nM; on DGKζ it was at most 100 nM.
Consider `Cc1nc2c(N3C[C@@H](C)N([C@@H](c4ccc(C(F)(F)F)cc4F)C(C)C)C[C@@H]3C)nc(=O)n(C)c2n1C[C@@H]1CCCO1` [Example 52, 6-((2S,5R)-4-((R)-1-(2-Fluoro-4-(trifluoromethyl)phenyl)-2-methylpropyl)-2,5-dimethylpiperazin-1-yl)-3,8-dimethyl-9-(((S)-tetrahydrofuran-2-yl)methyl)-3,9-dihydro-2H-purin-2-one], for which the IC50 at DGKα (setting [1]) and at DGKζ was at most 10 nM in each case.
With `Cc1nc2c(N3C[C@@H](CO)N(C(c4ccc(C(F)(F)F)cc4)C4CC(F)(F)C4)C[C@@H]3C)nc(=O)n(C)c2n1C[C@@H]1CCCO1` (stereo partly drawn) [Example 41, 6-((2S,5S)-4-((3,3-Difluorocyclobutyl)(4-(trifluoromethyl)phenyl)methyl)-5-(hydroxymethyl)-2-methylpiperazin-1-yl)-3,8-dimethyl-9-(((S)-tetrahydrofuran-2-yl)methyl)-3,9-dihydro-2H-purin-2-one], the IC50 against DGKα (cell prints a figure instead of a class symbol (possibly a misprint of +)) is 1 nM; at DGKζ, at most 10 nM.
For the compound `CC[C@@H]1CN(c2nc(=O)n(C)c3c2nc(C)n3C[C@@H]2CCCO2)[C@@H](C)CN1[C@H](CC)c1ccc(Cl)cc1` [Example 25, 6-((2S,5R)-4-((R)-1-(4-chlorophenyl)propyl)-5-ethyl-2-methylpiperazin-1-yl)-3,8-dimethyl-9-(((S)-tetrahydrofuran-2-yl)methyl)-3,9-dihydro-2H-purin-2-one], the IC50 on DGKα (setting [1]) and on DGKζ was at most 10 nM throughout.
With `CC[C@@H]1CN(c2nc(=O)n(C)c3c2nnn3C[C@H]2CCCO2)[C@@H](C)CN1C(c1ccc(Cl)cc1)C1CC(F)(F)C1` (stereo partly drawn) [Example 45, 7-((2S,5R)-4-((4-Chlorophenyl)(3,3-difluorocyclobutyl)methyl)-5-ethyl-2-methylpiperazin-1-yl)-4-methyl-3-(((R)-tetrahydrofuran-2-yl)methyl)-3,4-dihydro-5H-[1,2,3]triazolo[4,5-d]pyrimidin-5-one], the IC50 on DGKα (setting [1]) and at DGKζ was at most 10 nM throughout.
